Source: patent EP2090576A1, “6-halo-pyrazolo[1,5-a]pyridines, a process for their preparation and their use as metabotropic glutamate receptor (mGluR) modulators” (Merz Pharma GmbH & Co. KGaA, priority 2008, dated 2009)

Molecular target: T1, human metabotropic glutamate receptor mGluR5 (Homo sapiens, UniProt P41594)
T1 construct: expressed in transfected cells; host or cells: CHO-K1 cells (IPTG-inducible expression)
Test: Cytosolic Calcium studies with stably transfected cells (FLIPR)
Assay type: cell-based
Conditions: CHO-K1 cells with inducible human mGluR5; test compound added 5 minutes before L-quisqualic acid (concentration giving ~80% of the maximal signal); read-out: mGluR5_FLIPR_h_ CHO_NAM IC50
Method: Cytosolic Calcium studies with stably transfected cells:
Chinese hamster ovary cells (CHO-K1 cells), stably transfected for inducible expression of a human metabotropic glutamate receptor mGluR5, are seeded into black clear bottom 96 well plates at a density of 35.000 cells per well. The standard growth medium used (Dulbecco's modified Eagle Medium, DMEM plus L-proline) contains the appropriate inducer isopropyl-β-D-thiogalactopyranosid (IPTG) to achieve optimal receptor expression. One day after seeding the growth medium is exchanged for reconstituted Ca-Kit (Molecular Devices, USA) and incubated for one hour. Ca-Kit is reconstituted in an assay buffer containing 20 mM HEPES pH 7.4, glutamic-pyruvate transaminase, pyridoxal phosphate and sodium pyruvate in Hank's balanced salt solution (HBBS). Agonistic compounds to the receptor elicit increases in cytosolic calcium which can be measured as increases in fluorescence signals by use of a fluorescence imaging plate reader (Molecular Devices).
(§1) The fluorescence signal increase after addition of agonist reflects the increase of cytosolic calcium. Inconsistencies in the amount of cells per well are normalised by using the spatial uniformity correction of the FLIPR software. The mean of replicated temporal data (n=3-5) is calculated and used for graphical representation. For the evaluation of the pharmacology, the calcium changes in response to different concentrations of agonist or antagonist are determined using a maximum minus minimum (MaxMin) calculation.
(§2) All responses (RFU-values) are determined as percentage of control (= maximum response). EC50 and IC50 are calculated according the logistic equation using GraFit 5.0 (Erithacus Software, GB) or Prism 4.0 (GraphPad Software, USA).

T1 sequence (P41594 21-1212): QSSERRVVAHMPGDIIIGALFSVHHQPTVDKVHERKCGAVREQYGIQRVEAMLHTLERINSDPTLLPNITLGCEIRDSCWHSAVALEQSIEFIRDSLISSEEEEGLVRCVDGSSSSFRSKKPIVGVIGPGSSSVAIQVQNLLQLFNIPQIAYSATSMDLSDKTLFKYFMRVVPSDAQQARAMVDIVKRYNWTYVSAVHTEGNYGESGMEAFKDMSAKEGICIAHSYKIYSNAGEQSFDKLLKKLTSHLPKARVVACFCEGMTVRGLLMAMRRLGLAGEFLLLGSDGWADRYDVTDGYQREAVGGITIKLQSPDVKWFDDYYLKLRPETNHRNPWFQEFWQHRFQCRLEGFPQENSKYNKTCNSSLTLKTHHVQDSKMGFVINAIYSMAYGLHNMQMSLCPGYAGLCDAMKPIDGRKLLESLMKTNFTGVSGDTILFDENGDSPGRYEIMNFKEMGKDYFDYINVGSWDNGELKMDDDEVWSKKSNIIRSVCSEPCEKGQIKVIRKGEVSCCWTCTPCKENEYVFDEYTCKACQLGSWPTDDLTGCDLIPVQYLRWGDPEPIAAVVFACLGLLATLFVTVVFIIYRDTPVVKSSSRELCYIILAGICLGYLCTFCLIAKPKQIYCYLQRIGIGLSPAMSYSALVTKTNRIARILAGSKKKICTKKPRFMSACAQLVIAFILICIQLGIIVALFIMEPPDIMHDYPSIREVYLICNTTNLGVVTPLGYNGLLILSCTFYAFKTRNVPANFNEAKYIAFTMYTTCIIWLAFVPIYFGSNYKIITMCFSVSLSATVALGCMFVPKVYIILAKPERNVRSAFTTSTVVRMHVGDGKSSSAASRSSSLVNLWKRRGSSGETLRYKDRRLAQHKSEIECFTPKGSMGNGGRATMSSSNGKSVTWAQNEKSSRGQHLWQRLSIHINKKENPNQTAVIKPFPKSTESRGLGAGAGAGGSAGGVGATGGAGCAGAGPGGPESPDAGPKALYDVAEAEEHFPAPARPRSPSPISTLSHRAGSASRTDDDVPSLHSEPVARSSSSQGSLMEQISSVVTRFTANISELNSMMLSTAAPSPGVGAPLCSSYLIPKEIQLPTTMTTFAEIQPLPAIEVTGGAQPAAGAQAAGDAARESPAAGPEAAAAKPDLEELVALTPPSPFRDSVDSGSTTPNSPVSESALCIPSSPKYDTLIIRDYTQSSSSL

| Structure (SMILES) | IC50 [nM] |
| --- | --- |
| CC1c2ccccc2CCN1C(=O)c1cc2ccc(Cl)cn2n1 (stereo not shown) [drawing 1010, (6-Chloro-pyrazolo[1,5-a]pyridin-2-yl)-(1-methyl-3,4-dihydro-1H-isoquinolin-2-yl)-methanone] | 102 |
| O=C(c1cc2ccc(Br)cn2n1)N1CCc2ncc(Br)cc2C1 [drawing 1011, (3-Bromo-7,8-dihydro-5H-[1,6]naphthyridin-6-yl)-(6-bromo-pyrazolo[1,5-a]pyridin-2-yl)-methanone] | 306 |
| CN1c2ccccc2CCN1C(=O)c1cc2ccc(Br)cn2n1 [drawing 1015, (6-Bromo-pyrazolo[1,5-a]pyridin-2-yl)-(1-methyl-3,4-dihydro-1H-cinnolin-2-yl)-methanone] | 410 |
| C[C@@H]1c2ccccc2CCN1C(=O)c1cc2c(Cl)cc(Cl)cn2n1 [drawing 1016, (4,6-Dichloro-pyrazolo[1,5-a]pyridin-2-yl)-((R)-1-methyl-3,4-dihydro-1H-isoquinolin-2-yl)-methanone] | 114 |

Further lines, results first:

| IC50 [nM] | Structure (SMILES) |
| --- | --- |
| 218 | CC1c2ccccc2CCN1C(=O)c1cc2ccc(Br)cn2n1 (stereo not shown) [drawing 1009, (6-Bromopyrazolo[1,5-a]pyridin-2-yl)-(1-methyl-3,4-dihydro-1H-isoquinolin-2-yl)-methanone] |
| 167 | CC1c2ccsc2CCN1C(=O)c1cc2ccc(Br)cn2n1 (stereo not shown) [drawing 1012, (6-Bromo-pyrazolo[1,5-a]pyridin-2-yl)-(4-methyl-6,7-dihydro-4H-thieno[3,2-c]pyridin-5-yl)-methanone] |
| 178 | Cc1ccc2n1CCN(C(=O)c1cc3ccc(Br)cn3n1)C2C (stereo not shown) [drawing 1013, 6-bromo-2-[(1,6-dimethyl-3,4-dihydropyrrolo[1,2-a]pyrazin-2(1H)-yl)carbonyl]pyrazol o[1,5-a]pyridine] |
| 166 | CC1c2ccoc2CCN1C(=O)c1cc2ccc(Br)cn2n1 (stereo not shown) [drawing 1014, (6-Bromo-pyrazolo[1,5-a]pyridin-2-yl)-(4-methyl-6,7-dihydro-4H-furo[3,2-c]pyridin-5-yl)-methanone] |

Molecular target: T2, mGluR5 receptors (Rattus norvegicus, UniProt P31424)
T2 construct: Primary astrocyte cultures are prepared from cortices of newborn rats; endogenous in cells; host or cells: primary cortical astrocytes from Sprague-Dawley rat pups (2-4 d old), 14-15 DIV
T2 sequence (P31424 21-1203): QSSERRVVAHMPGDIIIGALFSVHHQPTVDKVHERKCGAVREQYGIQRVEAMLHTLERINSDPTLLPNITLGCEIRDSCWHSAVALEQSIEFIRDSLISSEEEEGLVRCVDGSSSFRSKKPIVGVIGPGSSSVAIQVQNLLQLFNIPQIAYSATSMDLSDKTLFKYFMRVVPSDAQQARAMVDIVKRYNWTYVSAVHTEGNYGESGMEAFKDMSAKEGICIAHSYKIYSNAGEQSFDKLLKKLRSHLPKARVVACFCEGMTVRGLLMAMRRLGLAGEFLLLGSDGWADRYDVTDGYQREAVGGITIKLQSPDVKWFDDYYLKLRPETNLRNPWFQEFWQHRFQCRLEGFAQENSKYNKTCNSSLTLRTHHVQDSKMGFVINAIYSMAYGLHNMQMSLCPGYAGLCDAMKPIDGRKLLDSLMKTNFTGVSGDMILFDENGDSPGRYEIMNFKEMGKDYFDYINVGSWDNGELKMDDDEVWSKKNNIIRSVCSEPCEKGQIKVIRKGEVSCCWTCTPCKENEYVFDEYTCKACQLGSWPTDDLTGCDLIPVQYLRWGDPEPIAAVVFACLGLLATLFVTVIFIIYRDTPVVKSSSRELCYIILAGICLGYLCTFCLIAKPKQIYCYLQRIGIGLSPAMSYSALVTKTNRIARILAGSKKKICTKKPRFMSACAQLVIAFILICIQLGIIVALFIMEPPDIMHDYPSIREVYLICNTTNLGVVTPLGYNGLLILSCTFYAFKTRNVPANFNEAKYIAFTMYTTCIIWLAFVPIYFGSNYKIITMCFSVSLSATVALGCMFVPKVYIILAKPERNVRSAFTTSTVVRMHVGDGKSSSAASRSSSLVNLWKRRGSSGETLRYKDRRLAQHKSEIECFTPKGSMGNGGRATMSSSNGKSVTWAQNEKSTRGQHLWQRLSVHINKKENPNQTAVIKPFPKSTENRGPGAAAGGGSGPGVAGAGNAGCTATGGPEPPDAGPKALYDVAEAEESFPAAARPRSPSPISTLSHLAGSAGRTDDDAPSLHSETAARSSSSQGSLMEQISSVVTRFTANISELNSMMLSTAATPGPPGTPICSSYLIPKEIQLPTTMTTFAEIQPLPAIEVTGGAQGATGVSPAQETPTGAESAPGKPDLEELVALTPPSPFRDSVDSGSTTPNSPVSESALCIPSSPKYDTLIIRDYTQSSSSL
Test: Cytosolic Calcium studies with astrocytes (astrocyte culture test, FLIPR)
Assay type: cell-based
Conditions: primary rat cortical astrocytes, 14-15 DIV; 10 minutes pre-incubation, L-quisqualate 100 nM; read-out: mGluR5_FLIPRr_rpA IC50
Method: Primary astrocyte cultures are prepared from cortices of newborn rats as described by Booher and Sensenbrenner (1972, Neurobiology 2(3):97-105). Briefly, Sprague-Dawley rat pups (2 - 4 d old) are decapitated and neocortices are dissected, disintegrated with a nylon filter (pore size 80 µm) and carefully triturated. The cell suspension is plated on poly-D-lysine pre-coated flasks (Costar, Netherlands) and cultivated in Dulbecco's Modified Eagle's Medium (DMEM, Invitrogen, Germany) supplemented with 10% foetal calf serum (FCS, Sigma, Germany), 4 mM glutamine and 50 µg/ml gentamycin (both Biochrom, Germany) at 37°C in a humidified atmosphere of 5% CO2 / 95% air for 7 d with exchanging the medium at day 2 and 6.
After 7 days in vitro (DIV), cells are shaken overnight at 250 rpm to remove oligodendrocytes and microglia. The next day, astrocytes are rinsed twice with CMF-PBS (calcium- and magnesium-free phosphate buffered saline, Biochrom, Germany), trypsinized and subplated on poly-D-lysine pre-coated 96-well plates (Greiner, Germany) at a density of 40,000 cells/well. 24 h after establishing the secondary culture the astrocytes are rinsed with PBS^++ (phosphate buffered saline, Biochrom, Germany) and fed with astrocyte-defined medium (ADM) consisting of DMEM containing 1x G5-supplement (Invitrogen, Germany), 0.5 µg/ml heparan sulfate, and 1.5 µg/ml fibronectin (both Sigma, Germany) (Miller et al., (1993) Brain Res. 618(1):175-8). 3 d later the medium is exchanged and the cells incubated for another 2-3 d, so that at the time of experiments astrocytes are 14-15 DIV.
Cytosolic Calcium studies with astrocytes:
The increase of cytosolic calcium after stimulation with the mGluR5 agonist L-quisqualate is measured using a fluorometric imaging plate reader (FLIPR) and the Ca-Kit (both Molecular Devices). Prior to addition of agonist or antagonist the medium is aspirated and cells are loaded for 2 h at RT with 150 µl of loading buffer consisting of Ca-sensitive dye reconstituted in sodium chloride (123 mM), potassium chloride (5.4 mM), magnesium chloride (0.8 mM), calcium chloride (1.8 mM), D-glucose (15 mM), and HEPES (20 mM), pH 7.3. Subsequently, plates are transferred to FLIPR to detect calcium increase with the addition of L-quisqualate (100 nM) measured as relative fluorescence units (RFU). If antagonists are tested, these compounds are pre-incubated for 10 minutes at RT before addition of the respective agonist.
as §1, §2

| Structure (SMILES) | IC50 [nM] |
| --- | --- |
| CC1c2ccccc2CCN1C(=O)c1cc2ccc(Cl)cn2n1 (stereo not shown) [drawing 1018, (6-Chloro-pyrazolo[1,5-a]pyridin-2-yl)-(1-methyl-3,4-dihydro-1H-isoquinolin-2-yl)-methanone] | 45 |
| O=C(c1cc2ccc(Br)cn2n1)N1CCc2ncc(Br)cc2C1 [drawing 1019, (3-Bromo-7,8-dihydro-5H-[1,6]naphthyridin-6-yl)-(6-bromo-pyrazolo[1,5-a]pyridin-2-yl)-methanone] | 108 |
| CN1c2ccccc2CCN1C(=O)c1cc2ccc(Br)cn2n1 [drawing 1023, (6-Bromo-pyrazolo[1,5-a]pyridin-2-yl)-(1-methyl-3,4-dihydro-1H-cinnolin-2-yl)-methanone] | 156 |

Further lines, results first:

| IC50 [nM] | Structure (SMILES) |
| --- | --- |
| 151 | CC1c2ccccc2CCN1C(=O)c1cc2ccc(Br)cn2n1 (stereo not shown) [drawing 1017, (6-Bromo-pyrazolo[1,5-a]pyridin-2-yl)-(1-methyl-3,4-dihydro-1H-isoquinolin-2-yl)-methanone] |
| 51 | CC1c2ccsc2CCN1C(=O)c1cc2ccc(Br)cn2n1 (stereo not shown) [drawing 1020, (6-Bromo-pyrazolo[1,5-a]pyridin-2-yl)-(4-methyl-6,7-dihydro-4H-thieno[3,2-c]pyridin-5-yl)-methanone] |
| 148 | Cc1ccc2n1CCN(C(=O)c1cc3ccc(Br)cn3n1)C2C (stereo not shown) [drawing 1021, 6-bromo-2-[(1,6-dimethyl-3,4-dihydropyrrolo[1,2-a]pyrazin-2(1 H)-yl)carbonyl]pyrazolo[1,5-a]pyridine] |
| 42.5 | CC1c2ccoc2CCN1C(=O)c1cc2ccc(Br)cn2n1 (stereo not shown) [drawing 1022, (6-Bromo-pyrazolo[1,5-a]pyridin-2-yl)-(4-methyl-6,7-dihydro-4H-furo[3,2-c]pyridin-5-yl)-methanone] |

Molecular target: T3, transmembrane allosteric modulatory sites of mGluR5 receptors (Rattus norvegicus, UniProt P31424)
T3 construct: from tissue; host or cells: rat cerebral cortex membranes (male Sprague-Dawley rats)
T3 sequence (P31424 21-1203): as above
Test: [3H]-MMPEP binding assay in rat cortical membranes
Conditions: radioligand [3H]-MMPEP, 60 minutes at room temperature, read-out: mGluR5_M_ MPEP_r_CTX_ IC50
Method: Preparation of rat cortical membranes:
The resulting pellet is re-suspended in 20 volumes of distilled water and centrifuged for 20 minutes at 8000 x g. […] All centrifugation steps are carried out at 4°C.
Alternatively, assays are performed with [^3H]-MMPEP (2-(3-methoxyphenylethynyl)-6-methylpyridine hydrochloride) as radioligand. […] Incubations are terminated using a Millipore filter system.

| IC50 [nM] | Structure (SMILES) |
| --- | --- |
| 400 | CC1c2ccccc2CCN1C(=O)c1cc2ccc(Br)cn2n1 (stereo not shown) [drawing 1024, (6-Bromo-pyrazolo[1,5-a]pyridin-2-yl)-(1-methyl-3,4-dihydro-1H-isoquinolin-2-yl)-methanone] |
| 260 | CC1c2ccccc2CCN1C(=O)c1cc2ccc(Cl)cn2n1 (stereo not shown) [drawing 1025, (6-Chloro-pyrazolo[1,5-a]pyridin-2-yl)-(1-methyl-3,4-dihydro-1H-isoquinolin-2-yl)-methanone] |
| 655 | CC1c2ccoc2CCN1C(=O)c1cc2ccc(Br)cn2n1 (stereo not shown) [drawing 1026, (6-Bromo-pyrazolo[1,5-a]pyridin-2-yl)-(4-methyl-6,7-dihydro-4H-furo[3,2-c]pyridin-5-yl)-methanone] |
| 43 | C[C@@H]1c2ccccc2CCN1C(=O)c1cc2c(Cl)cc(Cl)cn2n1 [drawing 1027, (4,6-Dichloro-pyrazolo[1,5-a]pyridin-2-yl)-((R)-1-methyl-3,4-dihydro-1H-isoquinolin-2-yl)-methanone] |
